Experimental data reported in PubChem BioAssay (NCI).
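All cell lines were grown in 96-well plates and treated with compound for 48 hours. TGI: total growth inhibition.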

Experiments:
Test in all cases: NCI anticancer screen, dose series, 48 h
A549 NSCLC = tested on: A549 NSCLC
CAKI-1 renal = tested on: CAKI-1 renal
CCRF-CEM leukemia = tested on: CCRF-CEM leukemia
HCC-2998 colon = tested on: HCC-2998 colon
HCT-15 colon = tested on: HCT-15 colon
K-562 leukemia = tested on: K-562 leukemia
NCI-H460 lung = tested on: NCI-H460 lung
SF-268 CNS = tested on: SF-268 CNS
SF-295 CNS = tested on: SF-295 CNS
SNB-19 CNS = tested on: SNB-19 CNS
SNB-75 CNS = tested on: SNB-75 CNS
SR leukemia = tested on: SR leukemia
UACC-257 melanoma = tested on: UACC-257 melanoma
UACC-62 melanoma = tested on: UACC-62 melanoma
UO-31 renal = tested on: UO-31 renal
HS 578T breast = tested on: HS 578T breast
MALME-3M melanoma = tested on: MALME-3M melanoma
MDA-MB-231 breast = tested on: MDA-MB-231 breast
NCI-H226 lung = tested on: NCI-H226 lung
PC-3 prostate = tested on: PC-3 prostate

Measured: TGI

Cc1n[nH]c(=O)n1/N=C/c1ccc(F)cc1
not listed: HS 578T breast | MALME-3M melanoma | MDA-MB-231 breast | NCI-H226 lung | PC-3 prostate
> 100 µM: all other assays above

CN=c1c2c(c3[nH]c4ccccc4c4cnc1c34)NCCC2=O
not listed: SR leukemia | UACC-62 melanoma
> 10 µM: all other assays above

CC(=O)[C@@H]1C/C(=C\OCc2ccccc2)O[C@H]1C
not listed: CCRF-CEM leukemia | HCC-2998 colon | SR leukemia | UACC-62 melanoma | HS 578T breast | PC-3 prostate
> 100 µM: all other assays above

CC(NO)/C(=N/O)c1ccco1 (stereo unspecified)
not listed: SNB-75 CNS | UACC-62 melanoma | HS 578T breast
> 10 µM: all other assays above

COc1ccc(P2(=S)Oc3ccccc3-c3ccccc3O2)cc1
> 54.9 µM: A549 NSCLC
9.56 µM: HCC-2998 colon
not listed: CAKI-1 renal | SR leukemia | UO-31 renal | PC-3 prostate
> 100 µM: all other assays above

Clc1ccc(OCc2nnc(CCCCCCCCc3nnc(COc4ccc(Cl)cc4Cl)n3Nc3ccccc3)n2Nc2ccccc2)c(Cl)c1
36.2 µM: UACC-257 melanoma
40 µM: UO-31 renal
24.4 µM: MDA-MB-231 breast
> 61.9 µM: SNB-19 CNS
64.4 µM: A549 NSCLC
34.8 µM: PC-3 prostate
32.1 µM: SF-268 CNS
15.7 µM: UACC-62 melanoma
70.3 µM: SNB-75 CNS
21.1 µM: NCI-H460 lung
35 µM: HCT-15 colon
49.3 µM: CAKI-1 renal
38 µM: NCI-H226 lung
31.4 µM: HS 578T breast
20.8 µM: HCC-2998 colon
40.6 µM: MALME-3M melanoma
17.3 µM: SF-295 CNS

CC(C)OP(=O)(OC(C)C)c1nc(-c2ccccc2)n(-c2ccc([N+](=O)[O-])cc2)n1
not listed: SR leukemia | HS 578T breast | MDA-MB-231 breast | PC-3 prostate
> 100 µM: all other assays above

COc1cc2nc(-c3cccs3)nc(N3CCN(c4ccccc4C(F)(F)F)CC3)c2cc1OC
not listed: SR leukemia
> 100 µM: all other assays above

CC(C)(Oc1ccccc1)C(=O)Sc1c(-c2ccccc2)c(=O)n(-c2ccccc2)c(=S)n1-c1ccccc1
85.4 µM: HS 578T breast
67.3 µM: NCI-H460 lung
80.2 µM: SF-268 CNS
82.8 µM: UO-31 renal
57.8 µM: SR leukemia
73.8 µM: MDA-MB-231 breast
not listed: PC-3 prostate
> 100 µM: all other assays above

c1ccc(N=C(Nc2ccccc2)N2CCCC2)cc1
not listed: HCC-2998 colon | MDA-MB-231 breast
> 100 µM: all other assays above

Nc1c2ccccc2nc2ccc3c(=O)cc(-c4ccccc4)oc3c12
2.23 µM: SR leukemia
2.7 µM: PC-3 prostate
1.9 µM: HCC-2998 colon
2.86 µM: UO-31 renal
4.3 µM: HCT-15 colon
3.39 µM: UACC-257 melanoma
2.63 µM: CAKI-1 renal
2.22 µM: NCI-H460 lung
3.23 µM: MALME-3M melanoma
0.326 µM: K-562 leukemia
2.56 µM: NCI-H226 lung
2.52 µM: MDA-MB-231 breast
3.58 µM: SNB-75 CNS

C1CSCCSCCSCCSC1
not listed: CCRF-CEM leukemia | K-562 leukemia | SR leukemia | MALME-3M melanoma
> 100 µM: all other assays above

O=C(Nc1ccccc1)c1cc2ccccc2c(N=Nc2ccc([N+](=O)[O-])cc2)c1O
46.4 µM: CCRF-CEM leukemia
not listed: HCC-2998 colon | NCI-H460 lung | SR leukemia
> 100 µM: all other assays above

O=P1(Oc2ccc(Cl)cc2Cl)Oc2ccc3ccccc3c2-c2c(ccc3ccccc23)O1
41.3 µM: UO-31 renal
> 90.6 µM: NCI-H460 lung
> 94.7 µM: SF-295 CNS
85 µM: SNB-75 CNS
43.3 µM: CAKI-1 renal
> 89.6 µM: CCRF-CEM leukemia
61.4 µM: HCC-2998 colon
82.8 µM: SNB-19 CNS
> 77.1 µM: HCT-15 colon
59.8 µM: NCI-H226 lung
70.4 µM: UACC-62 melanoma
46.4 µM: MALME-3M melanoma
> 100 µM: A549 NSCLC | K-562 leukemia | SF-268 CNS | UACC-257 melanoma
